Test results taken from US9777054B2, “Soluble fibrin inhibitory peptides and uses thereof” (ENSION INC., priority 2006, dated 2017).
“Also recorded” adds a separate entry of the source. No end group written: not given here.

Legend:
A375 cells = assay: Monocyte adherence to tumor cells under flow conditions (FCS2 perfusion stage incubator); assay type: cell-based, human
Method: Human peripheral blood monocytes, isolated by density centrifugation and adherence were labeled with the carbocyanine dye (DiI, C18; Molecular Probes, Eugene, Oreg.). They were passed across adherent soluble fibrin treated or untreated tumor cells at a shear force corresponding to that present in small blood capillaries for 1 h (FIGS. 7A and 7B).
The number of tumor cells and adherent monocytes were counted in the images and leukocyte adherence was expressed as the number of leukocytes per tumor cell.
Lyophilized murine anti-human monoclonal blocking antibodies directed against αLβ2 (clone 25.3) and CD54 (clone 84H10) were obtained from Beckman-Coulter (Miami, Fla.), as were purified immunoglobulin matched isotypic controls (IgG1 (mouse) Clone 679.1Mc7). Blocking monoclonal anti-£\M£]2 (clone ICRF44) was obtained from PharMingen (BD Biosciences, San Jose, Calif.). All antibody inhibition experiments were performed using pre-incubation of target cells with 5 μg antibody/106 cells. Experiments were performed in triplicate wells and the results were expressed as the mean+SD for three separate experiments).
To simulate the fluid shear stresses present in vivo, coverslips containing Calcein AM labeled, adherent A375 were loaded into the FCS2 stage incubator (Bioptechs Inc., Butler, Pa.) and mounted on the stage of a Leica DMIRB inverted fluorescence microscope equipped with a Hamamatsu Color Chilled 3CCD camera (C5810 model) attached to a computer for data acquisition.
The FCS2 incubator is a closed near-laminar flow, temperature-controlled perfusion chamber which facilitates direct observation and scanning of the cells on the coverslip during perfusion with solutions or cell suspensions. It was designed to maintain accurate thermal control and allow high-volume near-laminar flow perfusion. A fluid pathway was formed (Dimensions 0.5 mm×14 mm×25 mm) by separating the microaqueduct slide from the coverslip containing cells with a single silicone gasket with a rectangular bore, generating nearlaminar flow conditions during perfusion. The stage incubator was initially connected to a peristaltic pump on the afferent side using 0.062 inch bore S/P medical grade silicone tubing (Fisher Scientific, Suwanee, Ga.), with a three way in-line tap closed to the incubator inlet. The efferent side was connected to waste. After connection of the electronic temperature control, the coverslips were perfused with RPMI to briefly buffer the cells at 37° C. for fifteen minutes (flow rate of 0.5 ml/min). The inlet was then connected to the tube containing the appropriately treated monocyte suspension (3 mL). The efferent tubing was also connected to the same tube, and Di-I (Gant et al., 1992) labelled monocytes were recirculated across the tumor cells for 1 h, after which, the tubing was set up to the initial configuration and the cells were again washed with RPMI for 10 min to remove unbound monocytes.
Individual still images in five randomly chosen fields of view were captured and stored on the computer. The number of monocytes (red) and tumor cells (green) were counted in each field of view and the mean monocyte/tumor cell ratio was calculated. The wall shear stress was calculated using the momentum balance for a Newtonian fluid. The viscosity of water at 37° C. was used as an approximation of the viscosity of the buffer used (RPMI 1640; 0.007 poise). As described in the following equation, the wall shear stress experienced by the monolayer is equal to: T=3 μQ/2a^2b, where T=wall shear stress, μ=coefficient of viscosity (0.007 Poise), Q=volumetric flow rate (0.0083 cm3/s), a=half channel height (0.025 cm), and b=channel width (1.5 cm). The wall shear rate is given by T/μ. […]

fibrinogen = molecular target: T1, fibrinogen (Homo sapiens, UniProt P02679); assay: Thrombin induced clotting of purified fibrinogen; assay type: biochemical; conditions: fibrinogen 0.5 mg/ml, thrombin 0.125 U/ml, peptide 4 mmol/L, room temperature
T1 construct: purchased American Diagnostica Inc., Greenwich, Conn
T1 sequence (P02679 27-437 isoform P02679-2 limits assumed): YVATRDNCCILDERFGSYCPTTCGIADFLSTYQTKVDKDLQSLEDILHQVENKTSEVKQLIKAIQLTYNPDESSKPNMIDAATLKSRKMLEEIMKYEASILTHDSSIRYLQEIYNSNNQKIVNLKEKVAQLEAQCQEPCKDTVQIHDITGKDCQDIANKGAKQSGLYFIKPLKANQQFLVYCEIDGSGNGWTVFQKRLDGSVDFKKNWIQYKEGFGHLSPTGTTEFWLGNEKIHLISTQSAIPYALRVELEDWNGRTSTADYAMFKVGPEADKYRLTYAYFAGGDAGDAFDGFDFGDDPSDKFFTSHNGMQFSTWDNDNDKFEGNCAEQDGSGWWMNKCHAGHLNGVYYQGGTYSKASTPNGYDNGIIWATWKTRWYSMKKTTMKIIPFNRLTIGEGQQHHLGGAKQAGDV
T1 sequence (P02671 20-629 partner limits assumed): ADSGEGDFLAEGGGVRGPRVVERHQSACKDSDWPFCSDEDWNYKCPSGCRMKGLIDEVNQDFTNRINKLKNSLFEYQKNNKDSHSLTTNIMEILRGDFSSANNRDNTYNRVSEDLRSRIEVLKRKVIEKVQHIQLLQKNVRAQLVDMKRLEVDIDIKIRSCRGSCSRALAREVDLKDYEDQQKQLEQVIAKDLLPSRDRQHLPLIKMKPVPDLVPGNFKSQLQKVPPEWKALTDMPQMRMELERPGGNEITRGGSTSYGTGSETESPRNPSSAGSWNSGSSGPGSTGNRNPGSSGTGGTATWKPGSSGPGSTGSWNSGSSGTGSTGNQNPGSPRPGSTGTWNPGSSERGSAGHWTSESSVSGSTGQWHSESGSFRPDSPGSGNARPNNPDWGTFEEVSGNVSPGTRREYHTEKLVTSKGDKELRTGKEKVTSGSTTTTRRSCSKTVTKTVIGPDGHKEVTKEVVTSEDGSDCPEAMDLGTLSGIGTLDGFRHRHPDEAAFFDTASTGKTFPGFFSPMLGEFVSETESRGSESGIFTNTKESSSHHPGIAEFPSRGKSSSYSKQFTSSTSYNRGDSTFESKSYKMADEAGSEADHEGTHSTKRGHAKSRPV
T1 sequence (P02675 31-491 partner): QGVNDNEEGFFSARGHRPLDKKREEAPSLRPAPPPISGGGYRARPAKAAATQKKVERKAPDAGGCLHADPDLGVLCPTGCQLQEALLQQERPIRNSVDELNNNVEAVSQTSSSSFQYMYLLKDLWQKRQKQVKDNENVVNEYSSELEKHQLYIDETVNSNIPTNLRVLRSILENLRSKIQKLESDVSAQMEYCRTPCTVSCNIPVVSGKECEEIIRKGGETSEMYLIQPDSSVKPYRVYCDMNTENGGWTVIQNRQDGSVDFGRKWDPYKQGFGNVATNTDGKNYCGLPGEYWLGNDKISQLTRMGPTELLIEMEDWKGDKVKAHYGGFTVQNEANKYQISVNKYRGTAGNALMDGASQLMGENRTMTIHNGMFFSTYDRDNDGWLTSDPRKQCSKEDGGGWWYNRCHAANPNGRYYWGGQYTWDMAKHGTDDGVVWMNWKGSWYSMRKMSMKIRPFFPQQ
Method: Experiments were performed to determine if the specific fibrin(ogen) adherence inhibitors also affected (1) fibrinogen clotting in the presence of thrombin, or (2) normal coagulation in recalcified plasma.
Thrombin (0.625 μl (stock 100 U/ml) was added to RPMI 1640 medium containing 25 μl (stock 10 mg/ml) […] or in the presence of 4 mmol/L specific peptide or peptide combination in a total volume of 1 ml. The tubes were left at room temperature and clotting was determined by observed gelation of the solution every 30 s, and the approximate clotting time was recorded. An additional control was also tested in which the fibrin polymerization inhibitor GPRP-NH2 was added to fibrinogen in the presence of P1-P4 prior to thrombin addition. The tube was left at room temperature to determine if clotting was observed.

[1] = sFn treated with single peptide, incubated with one cell type (P3 tumor cells / P4 monocytes), other cell type untreated
[2] = one cell type treated with peptide only (P1 tumor cells / P2 monocytes), the other cell type with sFn
[3] = one cell type treated with single peptide then sFn (P1 A375 / P2 monocytes), other cell type with sFn (Bars 4, 5)
[4] = effector and tumor cells both pre-treated with single component of the sFn mixture

Gly-Pro-Arg-Pro-amide (GPRP-NH2) [reference compound]
effect on monocyte adherence (A375 cells; effector and tumor cells both pre-treated with single component of the sFn mixture, listed as GPRP): did not significantly inhibit adherence
effect on monocyte adherence (A375 cells; effector and tumor cells both pre-treated with single component of the sFn mixture, listed as GPRPNH2): no significant (P>0.05 compared to untreated cell adherence) inhibition was observed
clotting time (fibrinogen): > 15 min

KFGDPLGYEDVIPEADREG (CHAIN peptide comprising the soluble fibrin protein-binding domain in soluble fibin) [Peptide P4]
inhibition of monocyte adherence (A375 cells; sFn pre-treated with P4 and incubated with monocytes, tumor cells incubated with sFn (Bar 7)): no inhibition was observed
inhibition of monocyte adherence (A375 cells; [1]): no inhibition was observed

KVILPRGGSVLVTC (CHAIN peptide comprising amino acids 8-21 on the ICAM-1 first immunoglobulin domain) [Peptide P3]
inhibition of monocyte adherence (A375 cells; [1]): little or no inhibition was observed

NNQKIVNLKEKVAQLEA (CHAIN peptide comprising the cell-binding domain in soluble fibin.) [Peptide P1]
effect on monocyte adherence (A375 cells; [2]): Inhibition was still observed; also recorded: inhibited adherence to a similar level to that of sFn treatment of both cells
inhibition of monocyte adherence (A375 cells; [3]): inhibition was still observed

YKSMKKTTMKIIPFNRLTIF (CHAIN peptide comprising the cell-binding domain in soluble fibin.) [Peptide P2]
effect on monocyte adherence (A375 cells; [2]): Inhibition was also observed; also recorded: inhibited adherence to a similar level to that of sFn treatment of both cells
inhibition of monocyte adherence (A375 cells; [3]): inhibition was still observed

fibrinogen [reference compound]
effect on monocyte adherence (A375 cells; [4]): no significant (P>0.05 compared to untreated cell adherence) inhibition was observed; also recorded: did not significantly inhibit adherence

thrombin [reference compound]
effect on monocyte adherence (A375 cells; [4]): no significant (P>0.05 compared to untreated cell adherence) inhibition was observed; also recorded: did not significantly inhibit adherence
